Values of other authors, collected in patent publication EP0271041A2, “Atrial peptide derivatives” (ABBOTT LABORATORIES, priority 1986, dated 1988).
Bridges are numbered along the chain shown (N, C = ends). Where no end group is shown, it is not given here.

Settings: relative to furosemide

In the case of “alpha-human atrial natriuretic polypeptide (SLRRSSCFGGRMDRIGAQSGLGCNSFRY; disulfide 7-23 (inferred); ends not checked; UniProt P01160 124-151, looked up) [alpha-hANP, polypeptide consisting of 28 amino acids isolated from human atrium]”, the “diuretic action, times as strong as that of furosemide” value is given as “about 1000 times”.
